These results are taken from patent EP4711361A1, “NITROGEN-CONTAINING HETEROCYCLIC COMPOUND AND USE THEREOF” (Jiangsu Deyuan Pharmaceutical Co.,Ltd., priority 2023, dated 2024).

Data set [1] is described as follows: Plasma protein binding rate test (equilibrium dialysis), human plasma. The following applies: 2 µM, equilibrium dialysis 4 hours, 37°C. Background: Equilibrium dialysis compares concentrations on both sides of a semipermeable membrane.
The nature of data set [2]: Plasma protein binding rate test (equilibrium dialysis), SD rat plasma. Conditions: 2 µM, equilibrium dialysis 4 hours, 37°C.
A short description of data set [3]: In vitro liver microsome metabolic stability study. The following applies: human liver microsomes 0.5 mg/mL, 1 µM compound, up to 60 minutes. (In general: Liver microsomes are a subcellular fraction often used to study metabolism.)
Data set [4] is described as follows: In vivo pharmacokinetic study in cynomolgus monkeys. The following applies: male cynomolgus monkeys, oral 3 mg/kg.
The next data set concerns MDR1-MDCKII cells. Kind of data set: Permeability test (MDR1-MDCKII monolayer, bidirectional transport). It counts as in vitro ADME. Conditions: 2 µM. As to the method: (§1) Experimental objective: The permeability and efflux ratio of the compound of the present disclosure were determined using the MDR1-MDCKII monolayer cell model to assess its membrane permeability and potential for P-gp-mediated efflux transport.
(§2) Experimental protocol: MDR1-MDCKII cells (obtained from the Netherlands Cancer Institute) were seeded in 96-well plates (obtained from Corning) at a cell density of 3.33 × 10^5 cells/mL and cultured for 4 to 7 days to form confluent cell monolayers. Hank's balanced salt solution containing 10 mM HEPES (pH 7.40) was used as the transport buffer. The test compound was evaluated for bidirectional transport at a concentration of 2 µM, with the DMSO concentration in the incubation system maintained below 1%. After adding the samples, the cell plate was incubated at 37±1°C, 5% CO2, and saturated humidity for 2.5 hours. All samples were quantitatively analyzed using the LC-MS/MS method. The apparent permeability coefficient (Papp, cm/s) and efflux ratio (ER) were calculated using the following formula. Apparent permeability coefficient (Papp, cm/s) was calculated using the following formula: Papp = (dCr/dt) x Vr / (A x C0). Herein, dCr/dt represents the cumulative concentration of the compound at the receiving end per unit time (µM/s); Vr is the volume of the solution at the receiving end (with solution volumes at the apical and basolateral ends being 0.075 mL and 0.250 mL, respectively); A is the relative surface area of the cell monolayer (0.143 cm^2); C0 is the initial concentration of the test substance at the dosing end (µM) or the peak area ratio of the reference substance. The efflux ratio was calculated using the following formula: ER = Papp (BA)/ Papp (AB). Table 7: Permeability test results of compounds

Data set [5] can be described thus: In vivo pharmacokinetics study in rats. The following applies: male SD rats, oral 2 mg/kg.
A short description of data set [6]: Plasma protein binding rate test (equilibrium dialysis), cynomolgus monkey plasma. The following applies: 2 µM, equilibrium dialysis 4 hours, 37°C.
Data set [7] is described as follows: in vivo. The following applies: rat, po, 2 mg/kg.
A short description of data set [8]: in vitro. Conditions: cynomolgus monkey, plasma.
A short description of data set [9]: in vitro. The following applies: human, plasma.
Data set [10] can be described thus: Permeability test (MDR1-MDCKII monolayer, bidirectional transport). It counts as in vitro ADME. Conditions: dog; for efflux ratio at 2.5 h, 2 µM: MDCK-MDR1, pH 7.4, ER = Papp (BA)/ Papp (AB); for Papp A→B at 2.5 h, 2 µM: MDCK-MDR1, pH 7.4, pH 7.40, 2.5 hours, A to B, read-out: Apparent permeability coefficient (Papp (AB), 10^-6 cm/s). As to the method:
as §1, §2

Data set [11] is described as follows: in vitro. The following applies: human, microsomes.
A short description of data set [12]: in vivo. Conditions: cynomolgus monkey, po, 1 mg/kg.

`CCC(=O)N[C@@H]1CCCc2c(-c3ccc4c(ccc(=O)n4C)c3)cncc21` (single isomer, unassigned) [Compound 001]: the “Human plasma protein binding rate (%)” value in [1] is 76.1%. Besides, the “Plasma protein binding rate (%) in SD rats” value in [2] worked out at 92.1%. Further, the “Intrinsic hepatic clearance CLint(liver)” value in [3] was below 8.6 mL/min/kg. Further, in data set [4], the “F (%)” value came to 120%. Also, in [4] (plasma), the “AUC0-24h” value worked out at 23.174 µM·h, the Cmax was 4 µM and the “T1/2” value is reported as 4.99 h. For the same compound, in the data set on MDR1-MDCKII cells (ER = Papp (BA)/ Papp (AB), 150 min), the “Efflux ratio (ER)” value turned out to be 1.76. The “Apparent permeability coefficient (Papp (AB), 10^-6 cm/s)” value with MDR1-MDCKII cells (pH 7.40, 2.5 hours, A to B) is on record as 17.2 10^-6 cm/s. Also, the “F (%)” value in [5] is recorded as 80%. For the same compound, in data set [5] (plasma), the “AUC0-24h” value came out at 59.097 µM·h, the peak concentration (Cmax) turned out to be 7.63 µM and the “T1/2” value is 4.61 h. The “Plasma protein binding rate (%) in cynomolgus monkeys” value in data set [6] was 74.6%.
In the case of `CCC(=O)NC1CCCc2c(-c3cc4c(s3)N(C)C(=O)CC4)cncc21` (single isomer, unassigned) [Compound 017], in the data set “in vivo [7]”, the AUC(0-t) at 24 h was 8.13 µM·h, the Cmax is 4.17 µM, the bioavailability amounted to 115% and the half-life is 1.34 h. In addition, the fraction unbound at 4 h, 2 µM in “in vitro [8]” was 0.219. In the data set “in vitro [9]”, this compound gave a fraction unbound at 4 h, 2 µM of 0.173. Also, in [10], the efflux ratio at 2.5 h, 2 µM came out at 0.95 and the Papp A→B at 2.5 h, 2 µM worked out at 23.2 ×10⁻⁶ cm/s. This compound also came in with a CLint scaled at 1 µM in the data set “in vitro [11]” below 8.6 mL/min/kg. Further, in “in vivo [12]”, the AUC(0-t) at 24 h amounted to 7.29 µM·h, the Cmax was found to be 1.07 µM, the bioavailability was found to be 66% and the half-life was 5.3 h.
Consider `CCC(=O)NC1CCCc2c(-c3cc4ccc(=O)n(C)c4s3)cncc21` (single isomer, unassigned) [Compound 023], for which, in the data set “in vivo [7]”, the AUC(0-t) at 24 h was 44.2 µM·h, the highest level (Cmax) was 6.92 µM, the bioavailability is 109% and the half-life was 3.6 h. The compound also gave a fraction unbound at 4 h, 2 µM in the data set “in vitro [8]” of 0.31. This compound also had a fraction unbound at 4 h, 2 µM in “in vitro [9]” of 0.304. In data set [10], the efflux ratio at 2.5 h, 2 µM was 1.28 and the Papp A→B at 2.5 h, 2 µM stood at 20.8 ×10⁻⁶ cm/s. The same compound came in with a CLint scaled at 1 µM in “in vitro [11]” below 8.6 mL/min/kg. In the data set “in vivo [12]”, the AUC(0-t) at 24 h is 8.92 µM·h, the highest level (Cmax) was 1.32 µM, the bioavailability was 76.5% and the half-life was 4.8 h.

As usually defined, the Cmax is the highest concentration seen after dosing. What is called AUC(0-t) is the area under the concentration-time curve up to a stated or last time point. In general, half-life refers to how long it takes for the measured level to halve. The fraction unbound is the share of the substance not bound to proteins or other matrix. One may read the efflux ratio as a quotient of directional permeabilities that is used to spot active efflux. As a reminder, the CLint scaled is the capacity of the preparation to metabolise the compound, expressed as a volume cleared per time.
